Values of other authors, collected in patent US7682606B2, “Methods of producing edible fungi containing activated folates and nutritional supplements containing activated folates” (Jarrow Formulas, Inc., priority 2003, dated 2010).

Tests used:
[1] = animal
homocysteine = conditions: human

| Structure (SMILES) | Intestinal absorption after oral administration [1] | Reducing homocysteine, compared with racemic D,L mixtures (homocysteine) |
| --- | --- | --- |
| CN1c2c(nc(N)[nH]c2=O)NCC1CNc1ccc(C(=O)N[C@@H](CCC(=O)O)C(=O)O)cc1 (some centres unmarked) [5-MTHF, 5-methyltetrahydrofolate] | readily absorbed from the intestinal tract without degradation | – |
| CN1c2c(nc(N)[nH]c2=O)NCC1CNc1ccc(C(=O)N[C@@H](CCC(=O)O)C(=O)O)cc1 (single isomer, unassigned) [L-isomer of 5-MTHF, 5-methyltetrahydrofolate] | – | superior to racemic mixtures |
